In PMC3914206:

Tests used:
Assay type in all cases: binding
[1] = target: T1, panel of 442 kinases (Homo sapiens, UniProt P27361); conditions: Compound Concentration 10 µM
T1 construct: purchased KINOMEscan
Source text: (§1) We assessed the selectivity of members of this scaffold using the KINOMEscan methodology across a near comprehensive panel of 442 kinases [[18,27]].

[2] = target: T2, panel of 442 kinases (Homo sapiens, UniProt P11362); conditions: Compound Concentration 10 µM
T2 construct: purchased KINOMEscan
T2 sequence (P11362 22-822): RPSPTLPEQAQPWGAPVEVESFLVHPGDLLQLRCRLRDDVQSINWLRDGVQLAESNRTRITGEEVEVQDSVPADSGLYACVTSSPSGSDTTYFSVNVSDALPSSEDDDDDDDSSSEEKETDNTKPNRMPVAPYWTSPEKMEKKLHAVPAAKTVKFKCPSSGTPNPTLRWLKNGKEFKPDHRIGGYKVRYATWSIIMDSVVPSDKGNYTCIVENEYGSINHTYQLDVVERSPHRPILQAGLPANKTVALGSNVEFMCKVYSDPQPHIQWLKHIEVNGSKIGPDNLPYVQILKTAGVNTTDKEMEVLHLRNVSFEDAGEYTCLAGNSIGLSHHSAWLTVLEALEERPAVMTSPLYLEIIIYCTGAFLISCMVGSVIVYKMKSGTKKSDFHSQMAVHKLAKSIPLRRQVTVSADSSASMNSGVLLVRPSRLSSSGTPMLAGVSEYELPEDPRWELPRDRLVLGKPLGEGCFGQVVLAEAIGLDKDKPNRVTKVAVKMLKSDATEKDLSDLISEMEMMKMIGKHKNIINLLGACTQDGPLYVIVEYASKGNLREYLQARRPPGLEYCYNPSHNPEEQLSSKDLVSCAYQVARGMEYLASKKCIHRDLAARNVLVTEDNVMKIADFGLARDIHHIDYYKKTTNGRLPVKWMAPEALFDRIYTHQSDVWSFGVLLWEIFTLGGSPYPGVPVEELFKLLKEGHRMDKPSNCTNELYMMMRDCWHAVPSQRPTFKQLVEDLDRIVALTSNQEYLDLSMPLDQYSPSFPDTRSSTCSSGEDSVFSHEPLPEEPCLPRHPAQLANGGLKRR
Source text: as §1

[3] = target: T3, panel of 442 kinases (Homo sapiens, UniProt Q15349); conditions: compound concentration 10 µM; for % Ctrl, RSK3(Kin.Dom.1-N-terminal): kinase RSK3(Kin.Dom.1-N-terminal); for % Ctrl, RSK3(Kin.Dom.2-C-terminal): kinase RSK3(Kin.Dom.2-C-terminal)
T3 construct: purchased KINOMEscan
T3 sequence (Q15349 whole entry): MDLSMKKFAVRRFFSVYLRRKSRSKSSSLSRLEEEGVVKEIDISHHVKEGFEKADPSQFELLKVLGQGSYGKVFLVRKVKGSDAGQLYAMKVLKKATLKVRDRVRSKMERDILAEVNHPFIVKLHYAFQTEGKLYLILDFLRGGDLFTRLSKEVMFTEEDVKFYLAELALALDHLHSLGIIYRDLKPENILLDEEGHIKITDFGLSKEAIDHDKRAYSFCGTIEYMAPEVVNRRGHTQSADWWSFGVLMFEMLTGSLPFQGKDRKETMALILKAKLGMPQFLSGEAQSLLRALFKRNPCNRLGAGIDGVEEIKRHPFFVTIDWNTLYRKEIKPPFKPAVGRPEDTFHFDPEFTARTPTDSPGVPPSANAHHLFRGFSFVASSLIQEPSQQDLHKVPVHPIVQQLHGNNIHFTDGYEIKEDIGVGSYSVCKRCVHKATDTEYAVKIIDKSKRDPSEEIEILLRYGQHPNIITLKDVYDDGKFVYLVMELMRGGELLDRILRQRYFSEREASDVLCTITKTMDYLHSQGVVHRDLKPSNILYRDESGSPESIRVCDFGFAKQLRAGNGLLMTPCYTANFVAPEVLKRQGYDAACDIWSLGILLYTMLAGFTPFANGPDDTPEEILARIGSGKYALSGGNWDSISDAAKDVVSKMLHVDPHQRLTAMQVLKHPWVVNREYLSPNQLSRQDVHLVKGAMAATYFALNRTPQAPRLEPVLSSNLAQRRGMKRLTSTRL
Source text: as §1

[4] = target: T4, panel of 442 kinases (Homo sapiens, UniProt P22694); conditions: Compound Concentration 10 µM
T4 construct: purchased KINOMEscan
Source text: as §1

T1 sequence (P27361 whole entry): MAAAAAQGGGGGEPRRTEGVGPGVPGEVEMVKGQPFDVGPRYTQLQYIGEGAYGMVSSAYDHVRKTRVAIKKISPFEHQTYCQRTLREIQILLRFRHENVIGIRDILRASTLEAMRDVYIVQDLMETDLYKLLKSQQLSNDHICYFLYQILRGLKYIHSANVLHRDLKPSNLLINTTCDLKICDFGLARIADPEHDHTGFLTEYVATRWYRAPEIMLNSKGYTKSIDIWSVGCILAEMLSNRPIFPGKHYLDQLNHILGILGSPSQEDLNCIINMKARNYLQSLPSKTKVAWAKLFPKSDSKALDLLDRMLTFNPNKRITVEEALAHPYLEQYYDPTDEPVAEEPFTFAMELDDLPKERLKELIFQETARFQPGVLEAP

Row | Structure (SMILES) | KINOMEscan: ERK1 [1] | KINOMEscan: FGFR1 [2] | % Ctrl, RSK3(Kin.Dom.1-N-terminal) [3] [% Ctrl] | % Ctrl, RSK3(Kin.Dom.2-C-terminal) [3] [% Ctrl] | KINOMEscan: PKAC-beta [4]
1 | COc1cc(C(=O)N2CCC(N3CCN(C)CC3)CC2)ccc1Nc1ncc2c(n1)N(C)c1ccccc1C(=O)N2C [15 (LRRK2-IN-1)] | 100 | 86 | 83 | 7.5 | 100
2 | COc1cc(C(=O)N2CCC(N3CCN(C)CC3)CC2)ccc1Nc1ncc2c(n1)N1CCc3cccc(c31)C(=O)N2C [Compound 24] | – | 83 | 100 | 13 | –
3 | COc1cc(C(=O)N2CCC(N3CCN(C)CC3)CC2)ccc1Nc1ncc2c(n1)N(C1CCCC1)c1ccccc1C(=O)N2C [Compound 25, 11-cyclopentyl-2-((2-methoxy-4-(4-(4-methylpiperazin-1-yl)piperidine-1-carbonyl)phenyl)amino)-5-methyl-5H-benzo[e]pyrimido[5,4-b][1,4]diazepin-6(11H)-one] | 96 | 100 | 100 | 78 | 100
4 | CCOc1cc(C(=O)N2CCC(N3CCN(C)CC3)CC2)ccc1Nc1ncc2c(n1)N(C1CCCC1)c1ccccc1C(=O)N2C [Compound 26] | 100 | 100 | 100 | 83 | 100
